Measured values taken from patent US20240189615A1, “METHOD AND SYSTEM FOR PRODUCING APOPTOTIC MONONUCLEAR CELLS” (MACO PHARMA, priority 2020, published 2024).

Experiments:
JURKAT cells [1] = assay: Apoptosis test (annexin-V FITC / propidium iodide flow cytometry), delta-apoptosis; assay type: cell-based, human
Experimental: To obtain the desired quantity of JURKAT cells, they were cultured in an RPMI 1640 medium supplemented with foetal calf serum (10% v/v), 1% L-glutamine (Lonza) and 1% penicillin-streptomycin (Lonza). Cells were grown in culture flasks placed in an incubator at 37° C. and 5% CO2. The JURKAT doubling time was approximately 27 hours.
The cells were suspended in a solution of PBS (phosphate buffer saline) or in a 2% haematocrit solution comprising 1/14 of the anticoagulant ACD-A, a 50/50 v/v mixture of NaCl and plasma. The final volume was such that the thickness of the cell suspension in the container was around 3 mm.
In the case of UVA irradiation, the cell solution also contained 200 ng/ ml or 333° ng/ml of 8-MOP.
At the end of the irradiation step, the cell solutions with a haematocrit level of 2% are washed in order to recover as many JURKAT cells as possible for culture with low contamination by red blood cells. To do this, the components were separated by density gradient using a Ficoll solution (GE Healthcare).
After JURKAT isolation, the cells were washed three times to remove the Ficoll solution. The first two washes were performed in a PBS solution with 2 mM EDTA (Thermo Fisher), and the third was performed in a PBS solution. The cells were then re-suspended in supplemented RPMI medium and counted using Vi-cell and ABX in order to estimate the number of JURKAT that had been isolated and to assess the quantity of residual red blood cells.
(§1) To monitor the parameters of interest (apoptosis and inhibition of JURKAT proliferation), the cells were cultured using cell counting. To do this, 5.10^6 treated cells and 5.10^6 untreated cells were seeded in 10 ml of culture medium.
Apoptosis was studied by flow cytometry, using double labelling of cells with annexin-V coupled to a fluorophore FITC and propidium iodide (PI).
Delta-apoptosis was determined by the following formula:
Δapoptosis=(% apoptosis of treated cells−% apoptosis of untreated cells) [Math. 1]

JURKAT cells [2] = assay: Inhibition of cell proliferation (Vi-cell counting); assay type: cell-based, human
Experimental: The rate of inhibition of cell proliferation is determined by dividing the difference between the proliferation rate of the unirradiated control cells and the proliferation rate of the irradiated cells by the proliferation rate of the unirradiated control cells, the rate of cell proliferation being determined by dividing the total number of final cells by the total number of starting cells. The rate of inhibition of proliferation was determined 3 days after irradiation and after the cells had been cultured.
as §1
The initial JURKAT population was 5.10^6 cells per culture flask. The number of cells per culture flask was then counted by Vi-cell.
To do this, the culture medium with the cells was centrifuged at 1500 rpm for 5 minutes and the pellet was resuspended in supplemented RPMI culture medium. Depending on the cell density, a 1/10 dilution in PBS could be performed.
The percentage inhibition of cell proliferation on day n (Dn) was determined by the following formula:
% PI(Dn)=100−% P(Dn) [Math. 2]
in which % P(Dn) is the cell proliferation rate at n days, determined by the following formula: […]

[3] = JURKAT cells 330.10^6 in 300 ml, 2% haematocrit plasma/saline, 333 ng/ml 8-MOP, bag, Macogenic G2 (Maco Pharma ECP system)

**Q.** With `COc1c2occc2cc2ccc(=O)oc12` [8-MOP, 8-methoxypsoralen] as the compound, how does the “UVA dose from which acceptance criterion in terms of delta-apoptosis was achieved” value (JURKAT cells [1]; [3]) read?
**A.** Its value is no less than 2 J/cm^2.

**Q.** What about the “UVA dose meeting the acceptance criterion in terms of delta-apoptosis” value (JURKAT cells [1]; JURKAT cells in PBS, 200 ng/ml 8-MOP, Petri dish, BS02 irradiator, criterion delta-apoptosis 30-40% one day, 50-60% two days after irradiation) of the same compound?
**A.** The value was 0.13 J/cm^2.

**Q.** And the “rate of cell necrosis” value (JURKAT cells [1]; JURKAT cells in PBS, 200 ng/ml 8-MOP, all doses of UVA radiation tested (0.03-0.4 J/cm^2))?
**A.** Its value is “below 1%”.

**Q.** And the “equivalent UVA dose (sigmoidal model of delta-apoptosis), BS02 irradiator” value (JURKAT cells [1]; JURKAT cells in plasma, 333 ng/ml 8-MOP, BS02 irradiator in UVA)?
**A.** The value was 4 J/cm^2.

**Q.** And the “equivalent UVA dose (sigmoidal model of delta-apoptosis), Macogenic G2” value (JURKAT cells [1]; JURKAT cells in plasma, 333 ng/ml 8-MOP, delivered with Macogenic G2)?
**A.** The value was 2.1 J/cm^2.

**Q.** What about the “UVA dose at which acceptance criterion for delta-apoptosis was reached” value (JURKAT cells [1]; JURKAT cells in plasma/saline 50/50, 2% haematocrit, 333 ng/ml 8-MOP, Petri dish, BS02 irradiator) of the same compound?
**A.** The value was 4 J/cm^2.

**Q.** What about the “UVA dose from which acceptance criterion in terms of proliferation inhibition was achieved” value (JURKAT cells [2]; [3]) of the same compound?
**A.** The value was no less than 2 J/cm^2.

**Q.** And the “UVA dose meeting the acceptance criterion in terms of inhibition of proliferation” value (JURKAT cells [2]; JURKAT cells in PBS, 200 ng/ml 8-MOP, Petri dish, BS02 irradiator, criterion inhibition >70% 3 days after irradiation)?
**A.** The value was 0.13 J/cm^2.

**Q.** And the “UVA dose at which acceptance criterion for rate of proliferation inhibition was reached” value (JURKAT cells [2]; JURKAT cells in plasma/saline 50/50, 2% haematocrit, 333 ng/ml 8-MOP, Petri dish, BS02 irradiator, D+3)?
**A.** The value was 3 J/cm^2.
